Experimental data as given in patent US8642554B2, “Smac mimetic dimers and trimers useful as anti-cancer agents” (Joyant Pharmaceuticals, Inc., priority 2007, dated 2014).

Columns and labels:
[1] = system: Caspase3 activity in Hela S100 (blocked by IAPs); test: In vitro caspase-3 activation assay in Hela S100; type: biochemical; conditions: 100 nM compound, activity compared with reference compound, Table 1 experiment
Description: Caspase3 in most cell extracts can be activated by the addition of 1 mM dATP through the mitochondria caspase pathway. […] Taking advantage of this feature, we use 100 nM of synthetic Smac mimetic compound to test its ability to eliminate IAPs in the Hela S100 and fully induce Caspase3 activity. The In Vitro Caspase3 assay is carried out at 30° C., incubating 100 nM compounds with 30 ug of Hela S100, 1 mM dATP, 10 uM Caspase3 fluorogenic substrate (Caspase3 Substrate II, Fluorogenic, #235425 from Calbiochem). The readout is caspase-3 activity represented by relative fluorogenic unit, which is recorded kinetically. The slope in linear region of the curve for each compound is calculated.
Percent activity data is presented by comparing activity of the test compound with activity of the reference compound in Caspase-3 activation assay in vitro. The ratio of each synthetic compound's slope versus the slope of control reflects in vitro caspase-3 activation ability of compounds.

[2] = target: truncated XIAP containing only BIR1, BIR2, and BIR3 domains (Homo sapiens, UniProt P98170); test: Fluorescent polarization (FP) assay; type: binding
Chain of truncated XIAP containing only BIR1, BIR2, and BIR3 domains (P98170 26-330 limits assumed): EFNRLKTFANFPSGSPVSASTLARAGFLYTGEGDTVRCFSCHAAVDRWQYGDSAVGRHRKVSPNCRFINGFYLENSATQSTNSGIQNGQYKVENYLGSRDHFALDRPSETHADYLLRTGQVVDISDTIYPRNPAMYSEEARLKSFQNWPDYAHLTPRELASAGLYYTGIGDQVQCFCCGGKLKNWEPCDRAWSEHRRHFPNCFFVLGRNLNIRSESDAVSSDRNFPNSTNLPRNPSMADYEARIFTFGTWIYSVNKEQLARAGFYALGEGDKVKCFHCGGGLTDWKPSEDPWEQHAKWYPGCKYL
Description: Increasing concentrations of Smac compounds are incubated with 2 nM of labeled peptide (fluorescein labeled 10mer peptide with AVPI 4 amino acids at its N terminus-Alexa Fluor 488) and truncated XIAP containing only BIR1, BIR2, and BIR3 domains at room temperature for 1 hour. Fluorescence reading, indicative of the bound portion of the labeled peptide, is measured in milipolarization units (mP). The more compound added, less fluorescein labeled peptide bind to the protein due to the competitive binding and less fluorescence signal is released.
Based on this principle, we obtain the Ki value that evaluates compound's binding affinity.

[3] = system: HCC461 cells; test: Cell viability assay in HCC461 cells (WST-1); type: cell-based; conditions: 48 hrs incubation
Description: HCC461 cells plated in 96 well plates at 5×10^4/ml cell density are treated with 50× synthetic Smac mimetic compounds (final concentration range between 30 uM and 0.001 uM). After 48 hrs incubation at 37° C. and 5% CO2 viability of the cells are measured using Cell Proliferation Reagent WST-1 assay kit (Roche Cat #11 644 807 001).
WST-1 assay principle: The tetrazolium salts are cleaved to formazan by cellular enzymes. An expansion in the number of viable cells results in an increase in the overall activity of mitochondrial dehydrogenases in the samples. This augmentation in the enzyme activity leads to an increase in the amount of formazan dye formed, which directly correlates to the number of metabolically active cells in the culture. Quantification of the formazan dye produced by metabolically active cells by using a microplate (ELISA) reader at 420-480 nm.

[4] = HCC461, 48 h, Table 1 experiment
[5] = HCC461, 48 h, Table 2 experiment

Compound	Ki ([2]; Table 1 experiment)	IC50 [3, 4]	% Activity at 100 nM [1]	Ki ([2]; Table 2 experiment)	IC50 [3, 5]	other results
CN[C@@H](C)C(=O)NC(C(=O)C1C[C@@H](NC(=O)C2CCCC2C(=O)N[C@H]2CC(C(=O)N[C@@H]3CCCc4ccccc43)N(C(=O)[C@@H](NC(=O)[C@H](C)NC)C(C)(C)C)C2)CC1C(=O)N[C@@H]1CCCc2ccccc21)C(C)(C)C.Cl.Cl (single isomer, unassigned) [compound 17]	0.5 µM	0.019 µM	–	–	–	% Activity at 100 nM ([1]; 0.1 µM): 92%
CN[C@@H](C)C(=O)NC(C(=O)C1C[C@@H](NC(=O)C2CCCC2C(=O)N[C@H]2CC(C(=O)N[C@@H]3CCCc4ccccc43)N(C(=O)[C@@H](NC(=O)[C@H](C)NC)C(C)(C)C)C2)CC1C(=O)N[C@@H]1CCCc2ccccc21)C(C)(C)C.Cl.Cl (single isomer, unassigned) [compound 18]	0.35 µM	–	–	–	–	% Activity at 100 nM ([1]; 0.1 µM): 107%; IC50 ([3]; Table 1 experiment): 0.033 µM
CN[C@@H](C)C(=O)N[C@@H](CC#CC#CC[C@H](NC(=O)[C@H](C)NC)C(=O)N1CCC[C@H]1C(=O)N[C@@H]1CCCc2ccccc21)C(=O)N1CCC[C@H]1C(=O)N[C@@H]1CCCc2ccccc21.Cl.Cl [Ref cpd, reference compound]	0.35 µM	0.082 µM	100%	0.15 µM	0.063 µM	–
CN[C@@H](C)C(=O)N[C@H](C(=O)N1C[C@@H](NC(=O)c2ccc(C(=O)N[C@H]3C[C@@H](C(=O)N[C@@H]4CCCc5ccccc54)N(C(=O)[C@@H](NC(=O)[C@H](C)NC)C(C)(C)C)C3)s2)C[C@H]1C(=O)N[C@@H]1CCCc2ccccc21)C(C)(C)C.Cl.Cl [compound 12]	0.4 µM	0.002 µM	104%	–	–	–
CN[C@@H](C)C(=O)N[C@H](C(=O)N1C[C@@H](NS(=O)(=O)c2cccc(S(=O)(=O)N[C@H]3C[C@@H](C(=O)N[C@@H]4CCCc5ccccc54)N(C(=O)[C@@H](NC(=O)[C@H](C)NC)C(C)(C)C)C3)c2)C[C@H]1C(=O)N[C@@H]1CCCc2ccccc21)C(C)(C)C.Cl.Cl [compound 13]	0.3 µM	0.026 µM	108%	–	–	–
CN[C@@H](C)C(=O)N[C@H](C(=O)N1C[C@@H](NC(=O)c2cc(O)cc(C(=O)N[C@H]3C[C@@H](C(=O)N[C@@H]4CCCc5ccccc54)N(C(=O)[C@@H](NC(=O)[C@H](C)NC)C(C)(C)C)C3)c2)C[C@H]1C(=O)N[C@@H]1CCCc2ccccc21)C(C)(C)C.Cl.Cl [compound 14]	0.44 µM	0.026 µM	86%	–	–	–
CN[C@@H](C)C(=O)N[C@H](C(=O)N1C[C@@H](NC(=O)c2cc(C(=O)N[C@H]3C[C@@H](C(=O)N[C@@H]4CCCc5ccccc54)N(C(=O)[C@@H](NC(=O)[C@H](C)NC)C(C)(C)C)C3)[nH]n2)C[C@H]1C(=O)N[C@@H]1CCCc2ccccc21)C(C)(C)C.Cl.Cl [compound 15]	0.45 µM	0.009 µM	116%	–	–	–
CN[C@@H](C)C(=O)N[C@H](C(=O)N1C[C@@H](NC(=O)CN(C)CC(=O)N[C@H]2C[C@@H](C(=O)N[C@@H]3CCCc4ccccc43)N(C(=O)[C@@H](NC(=O)[C@H](C)NC)C(C)(C)C)C2)C[C@H]1C(=O)N[C@@H]1CCCc2ccccc21)C(C)(C)C.Cl.Cl.Cl [compound 16]	0.4 µM	0.074 µM	115%	–	–	–
CN[C@@H](C)C(=O)NC(C(=O)C1C[C@@H](NC(=O)c2cccc(C(=O)N[C@H]3CC(C(=O)N[C@@H]4CCCc5ccccc54)N(C(=O)[C@@H](NC(=O)[C@H](C)NC)C(C)(C)C)C3)c2)CC1C(=O)N[C@@H]1CCCc2ccccc21)C(C)(C)C.Cl.Cl (stereo partly shown) [compound 19]	0.45 µM	0.007 µM	120%	–	–	–
C#CC[C@H](NC(=O)[C@H](C)NC)C(=O)N1C[C@@H](NC(=O)c2cccc(C(=O)N[C@H]3C[C@@H](C(=O)N[C@@H]4CCCc5ccccc54)N(C(=O)[C@H](CC#C)NC(=O)[C@H](C)NC)C3)n2)C[C@H]1C(=O)N[C@@H]1CCCc2ccccc21 [compound 20]	–	0.222 µM	–	–	–	–
CN[C@@H](C)C(=O)N[C@H](C(=O)N1C[C@@H](NC(=O)[C@H](O)[C@@H](O)C(=O)N[C@H]2C[C@@H](C(=O)N[C@@H]3CCCc4ccccc43)N(C(=O)[C@@H](NC(=O)[C@H](C)NC)C(C)(C)C)C2)C[C@H]1C(=O)N[C@@H]1CCCc2ccccc21)C(C)(C)C [compound 21]	–	0.101 µM	–	–	–	–
C#CC[C@H](NC(=O)[C@H](C)NC)C(=O)N1C[C@@H](NC(=O)[C@H](O)[C@@H](O)C(=O)N[C@H]2C[C@@H](C(=O)N[C@@H]3CCCc4ccccc43)N(C(=O)[C@H](CC#C)NC(=O)[C@H](C)NC)C2)C[C@H]1C(=O)N[C@@H]1CCCc2ccccc21 [compound 22]	–	0.263 µM	–	–	–	–
CN[C@@H](C)C(=O)NC(C(=O)C1C[C@@H](NC(=O)C2CCCC2C(=O)N[C@H]2CC(C(=O)N[C@@H]3CCCc4ccccc43)N(C(=O)[C@@H](NC(=O)[C@H](C)NC)C(C)(C)C)C2)CC1C(=O)N[C@@H]1CCCc2ccccc21)C(C)(C)C (stereo partly shown) [compound 23]	–	–	–	0.05 µM	–	IC50 ([3]; Table 2 experiment): 0.002 µM
CN[C@@H](C)C(=O)NC(C(=O)C1C[C@@H](NC(=O)C2CCCC2C(=O)N[C@H]2CC(C(=O)N[C@@H]3CCCc4ccccc43)N(C(=O)[C@@H](NC(=O)[C@H](C)NC)C(C)(C)C)C2)CC1C(=O)N[C@@H]1CCCc2ccccc21)C(C)(C)C (stereo partly shown) [compound 24]	–	–	–	0.35 µM	–	IC50 ([3]; Table 2 experiment): 0.021 µM
CN[C@@H](C)C(=O)NC(C(=O)C1C[C@@H](NC(=O)C2CCCC(C(=O)N[C@H]3CC(C(=O)N[C@@H]4CCCc5ccccc54)N(C(=O)[C@@H](NC(=O)[C@H](C)NC)C(C)(C)C)C3)C2)CC1C(=O)N[C@@H]1CCCc2ccccc21)C(C)(C)C (stereo partly shown) [compound 25]	–	–	–	0.25 µM	0.024 µM	–
CN[C@@H](C)C(=O)N[C@H](C(=O)N1C[C@@H](NC(=O)CC(C)(O)CC(=O)N[C@H]2C[C@@H](C(=O)N[C@@H]3CCCc4ccccc43)N(C(=O)[C@@H](NC(=O)[C@H](C)NC)C(C)(C)C)C2)C[C@H]1C(=O)N[C@@H]1CCCc2ccccc21)C(C)(C)C [compound 26]	–	–	–	0.32 µM	0.023 µM	–
CN[C@@H](C)C(=O)N[C@H](C(=O)N1C[C@@H](NC(=O)COCC(=O)N[C@H]2C[C@@H](C(=O)N[C@@H]3CCCc4ccccc43)N(C(=O)[C@@H](NC(=O)[C@H](C)NC)C(C)(C)C)C2)C[C@H]1C(=O)N[C@@H]1CCCc2ccccc21)C(C)(C)C [compound 27]	–	–	–	0.25 µM	0.082 µM	–
CN[C@@H](C)C(=O)N[C@H](C(=O)N1C[C@@H](NC(=O)c2c(F)c(F)c(F)c(C(=O)N[C@H]3C[C@@H](C(=O)N[C@@H]4CCCc5ccccc54)N(C(=O)[C@@H](NC(=O)[C@H](C)NC)C(C)(C)C)C3)c2F)C[C@H]1C(=O)N[C@@H]1CCCc2ccccc21)C(C)(C)C [compound 28]	–	–	–	0.23 µM	0.002 µM	–
CN[C@@H](C)C(=O)N[C@H](C(=O)N1C[C@@H](NC(=O)C23CC4CC(C2)CC(C(=O)N[C@H]2C[C@@H](C(=O)N[C@@H]5CCCc6ccccc65)N(C(=O)[C@@H](NC(=O)[C@H](C)NC)C(C)(C)C)C2)(C4)C3)C[C@H]1C(=O)N[C@@H]1CCCc2ccccc21)C(C)(C)C [compound 29]	–	–	–	0.24 µM	0.005 µM	–
CN[C@@H](C)C(=O)N[C@H](C(=O)N1C[C@@H](NC(=O)[C@H]2CC[C@@](C)(C(=O)N[C@H]3C[C@@H](C(=O)N[C@@H]4CCCc5ccccc54)N(C(=O)[C@@H](NC(=O)[C@H](C)NC)C(C)(C)C)C3)C2(C)C)C[C@H]1C(=O)N[C@@H]1CCCc2ccccc21)C(C)(C)C [compound 30]	–	–	–	0.29 µM	0.008 µM	–
CN[C@@H](C)C(=O)N[C@H](C(=O)N1C[C@@H](NC(=O)[C@@H]2CC[C@](C)(C(=O)N[C@H]3C[C@@H](C(=O)N[C@@H]4CCCc5ccccc54)N(C(=O)[C@@H](NC(=O)[C@H](C)NC)C(C)(C)C)C3)C2(C)C)C[C@H]1C(=O)N[C@@H]1CCCc2ccccc21)C(C)(C)C [compound 31]	–	–	–	0.34 µM	0.003 µM	–
CN[C@@H](C)C(=O)N[C@H](C(=O)N1C[C@@H](NC(=O)c2cc(N)cc(C(=O)N[C@H]3C[C@@H](C(=O)N[C@@H]4CCCc5ccccc54)N(C(=O)[C@@H](NC(=O)[C@H](C)NC)C(C)(C)C)C3)c2)C[C@H]1C(=O)N[C@@H]1CCCc2ccccc21)C(C)(C)C [compound 32]	–	–	–	0.23 µM	0.015 µM	–
